Source: US20050256179A1, “Selective pharmacologic inhibition of protein trafficking and related methods of treating human diseases” (priority 2003, published 2005)
In brackets after ≈: the same amount, converted by molar mass.

Legend:
60 kinase assays = assay: Kinase and biochemical assay screens (Upstate panel); conditions: concentrations of less than 1 μg/ml; 1 μM in 60 kinase assays
From the text: In an effort to understand how these compounds might be acting at the cellular and molecular level, several screens of drug activity were initiated. The first 2 screens were designed to test the activity of drug on certain binding events and the activity of a variety of enzymes in vitro (FIGS. 14 and 15).

[1] = system: T cells from mouse spleen and human PBL; assay: T cell cytokine responses in vitro (Luminex beads); assay type: cell-based
From the text: These series of compounds were initially identified on the basis of their IgE-blocking activity in an ex vivo IgE response protocol (FIG. 2), and the biological activity of all analogs are characterized on the basis of their activity in this assay. Activity in the ex vivo assay is corroborated in the in vitro assay of B cell response to 1L-4/anti-CD40 Ab-stimulated IgE in human PBL (FIG. 3) using standard procedures, and mouse splenic B cells (not shown). Drug action on T cells was shown by testing T cell cytokine responses to various stimuli in vitro. The response of a cadre of cytokines and chemokines to several alternative stimuli was tested in T cells from both mouse spleen and human PBL. T cells were isolated from murine spleen and cultured for 16 hours in the presence of stimulus+/−AVP 13358. Supernatants were quantified for cytokines using Luminex beads. All cytokines achieved levels of at least 200 pg/ml and 10-fold higher than background (FIG. 4). T cells were isolated from donor PBL and cultured for 16-36 hours in the presence of Phytohemaglutin (PHA, 5 μg/ml) and ConA (5 μg/ml)+/−AVP 13358. Supernatants were quantified for cytokines using Luminex beads (FIG. 5). […] Total protein was assessed by the SRB assay, as adopted for many of the proliferation experiments outline below.

[2] = system: CD23 and the IL-4 receptor on murine B cells and human monocytes; assay: Induction of CD23 and IL-4 receptor expression; assay type: cell-based, mouse; conditions: murine B cells and human monocytes in vitro
[3] = system: rat basophilic leukemia (RBL) cells; assay: Degranulation of RBL cells; assay type: cell-based; conditions: induced with PMA/ionomycin or IgE-antigen complexes, not shown
From the text: The proposed mechanism of the AVP compounds on intracellular protein transit also allows certain predictions as to other effects and non-effects that these compounds might share. For example, inhibition of vesicle fusion or budding between the ER and golgi should not affect exocytosis as would be expected of a post-golgi active compound such as Monensin. AVP 893 has minimal effects on the expression of proteins involved in exocytosis, particularly VAMP, SNAP23 (non-neuronal cells), and SNAP25 (neuronal cells).

HCC 1806 = assay: Inhibition of tumor cell proliferation in vitro (SRB total protein); assay type: cell-based; conditions: in-house head-to-head, about 72 hours
Method: (§1) For a typical screening experiment, cells are inoculated into 96 well microtiter plates in 100 μl at plating densities ranging from 5,000 to 40,000 cells/well depending on the doubling time of individual cell lines. After cell inoculation, the microtiter plates are incubated at 37° C., 5% or 10% CO2—depending on the cell line and media—95% air and 100% relative humidity for 24 h prior to addition of experimental drugs. After 24 h, two plates of each cell line are fixed in situ with TCA, to represent a measurement of the cell population for each cell line at the time of drug addition. Following drug addition, the plates are incubated for an additional 48 h at 37° C., 5%/10% CO2, 95% air, and 100% relative humidity. For adherent cells, the assay is terminated by the addition of cold TCA. Cells are fixed in situ by the gentle addition of 50 μl of cold 50% (w/v) TCA (final concentration, 10% TCA) and incubated for 60 minutes at 4° C. The supernatant is discarded, and the plates are washed five times with tap water and air-dried. Sulforhodamine B (SRB) solution (10011) at 0.4% (w/v) in 1% acetic acid is added to each well, and plates are incubated for 10 minutes at room temperature. After staining, unbound dye is removed by washing five times with 1% acetic acid and the plates are air-dried. Bound stain is subsequently solubilized with 10 mM trizma base, and the absorbance is read on an automated plate reader at a wavelength of 515 nm. For suspension cells, the methodology is the same except that the assay is terminated by fixing settled cells at the bottom of the wells by gently adding 50 μl of 80% TCA (final concentration, 16% TCA). Using the seven absorbance measurements [time zero, control growth, and test growth in the presence of drug at the five concentration levels], the percentage growth is calculated at each of the drug concentrations levels.
(§2) Brefeldin A was tested by the NCI for inhibition of tumor cell proliferation in the 60-cell screen. The NCI 60-cell screen was performed essentially as described for FIG. 9. Data available from the NCI database for Brefeldin A was compared with more recent AVP 893 data. […] Several tumor cell lines were cultured in the presence of either AVP 893 or Brefeldin A for about 72 hours before assessing proliferation response by measuring total protein (SRB), as described for FIG. 9. The results of the head-to-head comparisons performed in-house also show substantial variation in the relative proliferative responses of cells to Brefeldin A and AVP 893 in vitro (TABLE 3).

Hs578T = assay: as above; assay type: cell-based; conditions: in-house head-to-head, about 72 hours, SRB
Method: as §1, §2

MOLT-4 = assay: as above; assay type: cell-based; conditions: in-house head-to-head, about 72 hours, SRB
Method: as §1, §2

NCI H-460 = assay: as above; assay type: cell-based; conditions: in-house head-to-head, about 72 hours, SRB
Method: as §1, §2

GS28 = GS28 expression by Western blotting; assay type: cell-based; conditions: MOLT4, Hs578T, H-460, overnight
Method: The culture medium was removed by vacuuming (for attached cells) or by low speed centrifugation (for suspension cells) for 5-7 minutes at room temperature. The cells were wasedh twith PBS, spun at 1200 rpm and the cell pellets were kept on ice. 300 μl/2.0×10^7 cells of ice cold lysis buffer was added with freshly added protease inhibitors. Cell pellets were gently resuspended and incubated on ice for at least 30 min, vortexed a few times during incubation. Cell lysate was spun at 14,000 rpm for 2-5 min at 4° C. The supernatant was transferred to a new microfuge tube and the pellet was discarded. An aliquot of sample was mixed with an equal volume of 2× sample buffer (InVitrogen), and stored at −80° C. Protein concentration was determined by using “BCA protein assay reagent kit” from Pierce.
Protein samples (in sample buffer) were boiled for 1-3 minutes and put on ice. Same amount of protein were loaded on the NuPage gel (InVitrogen). After the electrophoresis was complete, proteins were transferred from the gel to a PVDF membrane using the electro-blotting apparatus from InVitrogen; the voltage was set to 25 for 2-3 hr. Block non-specific binding by incubating membrane with 5% milk (in PBS, 0.1% tween 20) for at least 30 min at room temperature or overnight at 4° C. The blocked membrane was incubated with primary antibody (See TABLE 2) diluted in 5% milk for 1 hour at room temperature. Optimal antibody dilution depends on the company, the amount of protein. Dilutions of 1:1000 were generally used for the primary antibodies from Santa Cruz. The membrane was washed with PBS, 0.1% tween 3-4 times 5 mins. The membrane was incubated for 30-60 minutes at room temperature with horseradish peroxidase (HRP) conjugated secondary antibody diluted in 5% milk. We usually used 1:4000 dilution for the secondary antibody from Santa Cruz. The membrane was washed 3-4 times with PBS, 0.1% tween, each time 15 minutes. The detection solutions A and B were mixed in a ratio 40:1 and Pipetted onto the membrane, and incubated for 5 min at RT. A sheet of Hyper film ECL was placed on the top of the membrane in the dark and exposed for 1 min, or adjust accordingly.
To further examine the putative protein trafficking effects of AVP 893, other proteins in this pathway were tested in vitro in B16 and other cell lines. The effect of AVP 893 on cellular proteins was corroborated in B16 cells and extended to include a time-course (FIG. 17). B16-F10 tumor cells were seeded in T75 flasks at 20% confluence and cultured overnight. AVP 893 (100 ng/ml) was added to several flasks and one flask of cells was harvested at several time points following addition of compound. Lysates were prepared, separated by electrophoresis, and probed with antibody as described above in the general Western blotting protocol. Drug effects on GS28 and nicastrin paralleled each other and were progressively stronger with longer drug incubations. […] Other cell lines were tested for their expression of GS28 and nicastrin and found to respond similarly to drug, although quantitative differences were evident. Tumor cell lines found to respond similarly to AVP 893 include CAK1, SF295, PC3, MOLT4, Neuro2a, and RBL (FIGS. 18, 19, and 20). For the experiment shown in FIG. 18, LOX, CAKI, and 3T3 cell lines were treated as described for FIG. 17. For the results shown in FIG. 19, SF295, PC3, MOLT-4, and Neuro2a cells were treated as described for FIG. 17. For the results shown in FIG. 20, LOX, 3T3, and RBL cell lines were treated with varying concentrations of AVP 893 as described for FIG. 17. The effects on LOX cells were less evident. […] Levels of calnexin, a resident ER protein used as a control, were unchanged in drug-treated cells.

Mannosidase II = Mannosidase II immunocytochemistry; assay type: cell-based; conditions: 1 hr of treatment, immunocytochemistry
Method: GS15, GS28, GPP130, and Mannosidase II, sparing the golgi structural protein GM-130 and having little effect on the Rab GTPase Rab6. Furthermore, these affects were most pronounced following overnight (16-20 hr) incubations with AVP 893, although some affects at early time points were seen. These conclusions were drawn from the western blot analysis (FIG. 29), as well as from the immunocytochemical studies (FIGS. 30-31).
Additional evidence that AVP 893 has unique activity against resident golgi proteins (e.g. Mannosidase II), was found using both shorter durations of drug exposure and immunocytochemistry instead of western blot analysis (FIG. 43).

[4] = system: tumor cell lines (NCI 60-cell screening panel); conditions: NCI 60-cell screen, data from the NCI database; cited from earlier work

activity in kinase and biochemical assays (60 kinase assays)	Structure (SMILES)	IL-1 levels ([1]; in vitro)	levels of cytokines including IL-4, IL-5, IL-13 ([1]; stimulated T cells, 16-36 hours)	induction of CD23 and IL-4 receptor [2]	degranulation [3]	IC50 (HCC 1806) [µg/mL]	IC50 (Hs578T) [µg/mL]	IC50 (MOLT-4) [µg/mL]	IC50 (NCI H-460) [µg/mL]	GS28 expression (GS28)	Mannosidase II staining pattern (Mannosidase II)	concentrations inhibiting proliferation of virtually all cells [4] [nM]
no drug activity was observed	O=C(Nc1ccccn1)c1ccc2[nH]c(-c3ccc(NC(=O)C45C[C@H]6C[C@@H](C4)C[C@@H](C5)C6)cc3)nc2c1 [AVP 13358]	does not affect IL-1 levels	potently suppressed the levels of most cytokines	potently blocked the induction of these receptors	does not inhibit degranulation							
	C[C@H]1CCC/C=C/[C@@H]2C[C@H](O)C[C@H]2[C@H](O)/C=C/C(=O)O1 [Brefeldin A, reference compound]					0.03 (≈ 0.107 µM)	0.1 (≈ 0.357 µM)	0.003 (≈ 0.0107 µM)	0.005 (≈ 0.0178 µM)	variable effects	completely dispersed	10 to 100
